Reference: patent US20040115227A1, “Thermoformable solid pharmaceutical composition for controlled release of perindopril” (priority 2000, published 2004)
Counter-ions that a name gives are not always drawn.

Tests used:
[1] = stability study over 6 months; format: physicochemical; conditions: variable temperature and relative humidity conditions, packaging of the aluminium/PVC blister type
[2] = degradation during extrusion in the hot state; format: physicochemical; conditions: extrusion in the hot state at temperatures of from 95° C. to 110° C.
Experimental: Moreover, and in surprising manner, it has been shown that the perindopril tert-butylamine salt, which is usually unstable to temperature or in association with certain acidic excipients, was not degraded, or only slightly degraded, during extrusion in the hot state carried out at temperatures of from 95° C. to 110° C. (less than 3% degradation).

- stability [1]: excellent stability
- degradation [2]: less than 3%
Compound: CCC[C@H](N[C@@H](C)C(=O)N1[C@H](C(=O)O)C[C@@H]2CCCC[C@@H]21)C(=O)OCC [perindopril tert-butylamine salt, perindopril]
